Patent US8580579B2, “Hydrophilic and lipophilic rhodamines for labelling and imaging” (Max-Planck-Gesellschaft zur Foerderung der Wissenschaften …, priority 2009, dated 2013)
“Also recorded” adds a separate entry of the source. Where two headings read alike, the source gives them in different places. Values belong to the compound of their own block, whether it stands above or below them.

What was measured:
[1] = cited from earlier work; for Φfl: no solvent given in the cell
[2] = cited from earlier work
[3] = Solubility and polarity of the dyes
[4] = Fluorescence quantum yield, Atto 633 as reference; assay type: physicochemical; conditions: Atto 633 as reference (Φfl = 64% in aqueous buffer)
From the text: Moreover, intersystem crossing rates (kISC) and rates of the T1→S0 transitions were also found to be the same for both deuterated and undeuterated substances (see ref. to Table 2).

[5] = UV-visible absorption and fluorescence spectra of the dyes of the invention; assay type: physicochemical; conditions: for ε · 10^−5 / λmax (abs.) / λmax (fl.): solvent MeOH
Procedure: UV-visible absorption spectra were recorded on a Varian Cary 4000 UV-Vis spectrophotometer, and fluorescence spectra on a Varian Cary Eclipse fluorescence spectrophotometer. Reactions were carried out upon magnetic stirring in Schlenk flasks equipped with septa or reflux condensers with bubble-counters under argon using a standard manifold with vacuum and argon lines. All NMR spectra are referenced to tetramethylsilane as an internal standard (δ=0 ppm) using the signals of the residual protons of CHCl3 (7.26 ppm) in CDCl3, CHD2OD (3.31 ppm) in CD3OD, HOD (4.75 ppm) in D2O, [D5]acetone (2.04 ppm) in [D6]acetone or [D5]DMSO (2.50 ppm) in [D6]DMSO. Multiplicities of signals are described as follows: s=singlet, br. s=broad singlet, d=doublet, t=triplet, q=quartet, quint=quintet, m=multiplet, mc=centrosymmetrical multiplet. Coupling constants (J) are given in Hz. Multiplicities in the ^13C NMR spectra were determined by APT (Attached Proton Test) measurements. Low resolution mass spectra (electro spray ionization, ESI) were obtained with LCQ and ESI-TOF mass-spectrometers (MICROTOF (focus), Fa. Bruker). The MICROTOF spectrometer equipped with ESI ion source Apollo and direct injector with LC autosampler Agilent RR 1200 was used for obtaining high resolution mass spectra (ESI-HRMS). ESI-HRMS were obtained also on APEX IV spectrometer (Bruker). HPLC system (Knauer): Smartline pump 1000 (2×), UV detector 2500, column thermostat 4000 (25° C.), mixing chamber, injection valve with 20 and 100 μL loop for the analytical and preparative columns, respectively; 6-port-3-channel switching valve; analytical column: Eurospher-100 C18, 5 μm, 250×4 mm, 1.1 mL/min; preparative column: Eurospher-100-5 C18, 5 μm, 250×8 mm, 3.7 mL/min; solvent A: water+0.1% v/v trifluoroacetic acid (TFA); solvent B: MeCN+0.1% v/v TFA; detection at 636 nm (if not stated otherwise). Normal phase analytical TLC was performed on MERCK ready-to-use plates with silica gel 60 (F254) and reversed phase TLC—on RP-18W/UV254 precoated TLC plates (Macherey-Nagel). Preparative TLC was performed on MERCK HPTLC silica gel 60 plates (10×10 cm, layer thickness 0.2 mm). Column chromatography: MERCK silica gel, grade 60, 0.04-0.063 mm or Polygoprep 60-50 C18 (Macherey-Nagel).

[6] = Chemical and storage stability of dyes and reactive derivatives; assay type: physicochemical; conditions: for chemical stability of the active ester: isolation and storage; for stability in a solid state: under Ar
From the text: Usually, amino- or thiol reactive derivatives of the fluorescent dyes are used for labelling of proteins. For conjugation with amines, the free carboxy group needs to be activated by the formation of N-hydroxy(sulfo)succinimidyl esters, phenyl esters with electron-acceptor groups in the benzene ring or similar compounds with good leaving groups. […] Ester 8 partly decomposed in the course of chromatographic isolation using silica gel. Therefore, the reaction mixture containing the active ester 8 was used for labelling the lipids in their non-polar domain and other coupling procedures. […] They were isolated by reversed-phase HPLC using the gradient elution with aqueous acetonitrile with 0.1% (v/v) of TFA, lyophilized and stored at −20° C. under argon. Under these conditions, the content of the corresponding acids 6/6D in the very light dark blue voluminous solids increased from 3-5% up to 7-10% in 2 months. The higher stability of the NHS esters 9 and 10 may be explained by the absence of any nucleophilic counter ion. The maleimide derivative 11 has been prepared straight from compounds 9 and 10 by combining them in DMF with Et3N as base. It was also isolated by HPLC.

[7] = as above; assay type: physicochemical

SMILES: O=C(O)CCCCCNC(=O)COc1ccc(/C=C/C2=[N+]3C(=Cc4ccc(-c5cccs5)n4[B-]3(F)F)C=C2)cc1 [BODIPY ® 630/650]
τfl ([1]; EtOH): 4.4 (EtOH)^1 ns
τfl ([1]; H2O): 3.9 (H2O) ns
Φfl [1]: “good”
ε · 10^−5 ([1]; solvent MeOH): 1.01 M^−1 cm^−1
λmax (abs.) ([1]; solvent MeOH): 625 nm
λmax (fl.) ([1]; solvent MeOH): 640 nm
Solubility (solvents) [2]: DMSO, MeCN

Solubility (solvents) [3]: DMF, THF, CHCl3;
polarity [3]: non-polar
solubility in water or aqueous buffers [3]: very slightly soluble in water
Φfl in water [4]: 53%
Stokes shift ([5]; dyes of the invention): 23 nm
ε · 10^−5 [5]: 0.73 M^−1 cm^−1
λmax (abs.) [5]: 638 nm
λmax (fl.) [5]: 661.5 nm
SMILES: CC1=CC(C)(C)N2CCCc3c4c(cc1c32)C(c1c(F)c(F)c(F)c(F)c1C(=O)N(C)CCC(=O)O)=c1cc2c3c(c1O4)CCC[N+]=3C(C)(C)C=C2C [Compound 5-H]
solubility in organic solvents [3]: moderately soluble in polar organic solvents; also recorded: very good

Solubility (solvents) [3]: DMF, THF, CHCl3;
polarity [3]: non-polar
solubility in water or aqueous buffers [3]: insoluble in water
Φfl in water [4]: 62%
ε · 10^−5 [5]: 0.66 M^−1 cm^−1
λmax (abs.) [5]: 638 nm
λmax (fl.) [5]: 661.5 nm
SMILES: COC(=O)CCN(C)C(=O)c1c(F)c(F)c(F)c(F)c1C1=c2cc3c4c(c2Oc2c1cc1c5c2CCCN5C(C)(C)C=C1C)CCC[N+]=4C(C)(C)C=C3C [Compound 5-Me]
solubility in organic solvents [3]: soluble in most organic solvents (except alkanes)

Solubility (solvents) [3]: DMF, THF, CHCl3;
polarity [3]: non-polar
solubility in water or aqueous buffers [3]: insoluble in water
Φfl in water [4]: 61%
ε · 10^−5 [5]: 0.92 M^−1 cm^−1
λmax (abs.) [5]: 638 nm
λmax (fl.) [5]: 661 nm
SMILES: CC1=CC(C)(C)N2CCCc3c4c(cc1c32)C(c1c(F)c(F)c(F)c(F)c1C(=O)N(C)CCC(=O)OC(C)(C)C)=c1cc2c3c(c1O4)CCC[N+]=3C(C)(C)C=C2C [Compound 5-tBu]
solubility in organic solvents [3]: soluble in most organic solvents (except alkanes)

Solubility (solvents) [3]: CHCl3, THF
polarity [3]: non-polar
λmax (abs.) [5]: 632 nm
λmax (fl.) [5]: 655.5 nm
SMILES: COC(=O)c1c(F)c(F)c(F)c(F)c1C1=c2cc3c4c(c2Oc2c1cc1c5c2CCCN5C(C)(C)C=C1C)CCC[N+]=4C(C)(C)C=C3 [Compound 7]

chemical stability of the active ester [6]: Low chemical stability
SMILES: CC1=CC(C)(C)N2CCCc3c4c(cc1c32)C(c1c(F)c(F)c(F)c(F)c1C(=O)N(C)CCC(=O)Oc1c(F)c(F)cc(F)c1F)=c1cc2c3c(c1O4)CCC[N+]=3C(C)(C)C=C2C [Compound 8]

solubility in water or aqueous buffers [3]: soluble in water
stability in aqueous solutions ([7]; at RT): decomposes
chemical stability of the active ester [6]: remarkably stable
stability in a solid state [6]: stable
SMILES: CN(CCC(=O)ON1C(=O)CCC1=O)C(=O)c1c(F)c(F)c(F)c(F)c1C1=c2cc3c4c(c2Oc2c1cc1c5c2CCCN5C(C)(C)C=C1CS(=O)(=O)O)CCC[N+]=4C(C)(C)C=C3CS(=O)(=O)[O-] [Compound 9]

solubility in water or aqueous buffers [3]: soluble in water
stability in a solid state [6]: stable
SMILES: CN(CCC(=O)NCCN1C(=O)C=CC1=O)C(=O)c1c(F)c(F)c(F)c(F)c1C1=c2cc3c4c(c2Oc2c1cc1c5c2CCCN5C(C)(C)C=C1CS(=O)(=O)O)CCC[N+]=4C(C)(C)C=C3CS(=O)(=O)O [Compound 11]
stability in methanol or methanol-containing solutions [7]: decomposes; also recorded: sensitive to methanol even at room temperature

SMILES: CCN(CC)c1ccc2c(C=CC=C3N(CCCCCC(=O)O)c4ccc(S(=O)(=O)[O-])cc4C3(C)C)cc(C(C)(C)C)[o+]c2c1 [DY-630]
τfl ([1]; H2O): 0.21 ns
Φfl [1]: Varies^6
ε · 10^−5 ([1]; solvent EtOH): 2.0 M^−1 cm^−1
λmax (abs.) ([1]; solvent EtOH): 636 nm
λmax (fl.) ([1]; solvent EtOH): 657 nm
λmax (abs.) ([1]; solvent H2O): 627^1 nm
λmax (fl.) ([1]; solvent H2O): 651^1 nm
Solubility (solvents) [2]: MeOH, EtOH,; also recorded: DMF, DMSO

SMILES: CC[N+](CC)=c1ccc2c(/C=C/C=C3/N(CCCS(=O)(=O)[O-])c4ccc(S(=O)(=O)[O-])cc4C3(C)CCCC(=O)O)cc(C(C)(C)C)oc-2c1.[Na+] (centres unmarked) [DY-631]
ε · 10^−5 ([1]; solvent EtOH): 2.0 M^−1 cm^−1
Solubility (solvents) [2]: H2O, MeOH,; also recorded: DMF, DMSO

SMILES: CC[N+](CCCS(=O)(=O)[O-])=c1ccc2c(C=CC=C3N(CCCCCC(=O)O)c4ccc(S(=O)(=O)[O-])cc4C3(C)C)cc(C(C)(C)C)oc-2c1.[Na+] [DY-633]
ε · 10^−5 ([1]; solvent EtOH): 2.0 M^−1 cm^−1
Solubility (solvents) [2]: H2O, MeOH,; also recorded: DMF, DMSO

SMILES: CC(C)(C)c1cc(C=CC=C2N(CCCC(=O)O)c3ccc(S(=O)(=O)[O-])cc3C2(C)CCCS(=O)(=O)[O-])c2ccc(=[N+](CCCS(=O)(=O)[O-])CCCS(=O)(=O)[O-])cc-2o1.[Na+].[Na+].[Na+] (centres unmarked) [DY-634]
ε · 10^−5 ([1]; solvent EtOH): 2.0 M^−1 cm^−1
Solubility (solvents) [2]: H2O, MeOH,; also recorded: DMF, DMSO

SMILES: CC(C)(C)c1cc(C=CC=C2N(CCCCCC(=O)O)c3ccc(S(=O)(=O)[O-])cc3C2(C)C)c2cc3c4c(c2[o+]1)CCCN4CCC3 [DY-635]
τfl ([1]; H2O): 0.48 ns
ε · 10^−5 ([1]; solvent EtOH): 2.0 M^−1 cm^−1
λmax (abs.) ([1]; solvent EtOH): 647 nm
λmax (fl.) ([1]; solvent EtOH): 671 nm
λmax (abs.) ([1]; solvent H2O): 635^1 nm
λmax (fl.) ([1]; solvent H2O): 669^1 nm
Solubility (solvents) [2]: MeOH, EtOH,; also recorded: DMF, DMSO

SMILES: CC(C)(C)C1=CC(=CC=CC2=[N+](CCCS(=O)(=O)[O-])c3ccc(S(=O)(=O)[O-])cc3C2(C)CCCC(=O)O)c2cc3c4c(c2O1)CCCN4CCC3.[Na+] (centres unmarked) [DY-636]
ε · 10^−5 ([1]; solvent EtOH): 2.0 M^−1 cm^−1
λmax (abs.) ([1]; solvent EtOH): 645 nm
λmax (fl.) ([1]; solvent EtOH): 671 nm
Solubility (solvents) [2]: H2O, EtOH,; also recorded: DMF, DMSO

SMILES: CCN1c2cc3[o+]c(C(C)(C)C)cc(C=CC=C4N(CCCCCC(=O)O)c5ccc(S(=O)(=O)[O-])cc5C4(C)C)c3cc2C(C)=CC1(C)C [DY-650]
τfl ([1]; H2O): 0.64 (H2O)^1 ns
ε · 10^−5 ([1]; solvent EtOH): 2.2 M^−1 cm^−1
λmax (abs.) ([1]; solvent EtOH): 653 nm
λmax (fl.) ([1]; solvent EtOH): 674 nm
λmax (abs.) ([1]; solvent H2O): 646^1 nm
λmax (fl.) ([1]; solvent H2O): 670 nm
Solubility (solvents) [2]: MeOH, EtOH,; also recorded: DMF, DMSO

SMILES: CCN(CCCS(=O)(=O)[O-])c1ccc2nc3ccc(=[N+](C)CCC(=O)O)cc-3oc2c1 [Evoblue 30]
τfl ([1]; H2O): 0.64 (H2O)^1 ns
ε · 10^−5 ([1]; solvent EtOH): 1.0 M^−1 cm^−1
λmax (abs.) ([1]; solvent EtOH): 647 nm
λmax (fl.) ([1]; solvent EtOH): 664 nm
λmax (abs.) ([1]; solvent H2O): 650^1 nm
λmax (fl.) ([1]; solvent H2O): 667^1 nm
Solubility (solvents) [2]: H2O, MeOH,; also recorded: DMF, DMSO
